In this data set the test system is CYP3A4. Nature of the data set: CYP3A4 induction assay (CYP 3A4 mRNA by qPCR in cryopreserved human hepatocytes). The conditions noted are these: 10 μM compound; for CYP3A4 Ind. (%): value in brackets: induction relative to prototypical inducer rifampicin = 100%. Format: in vitro ADME. The method, then: CYP induction was evaluated in vitro by determining the expression levels of CYP 3A4 mRNA using the qPCR (quantitative polymerase chain reaction) assay. On day one, cryopreserved human hepatocytes were thawed in prewarmed (37° C.) thawing medium (cryopreserved hepatocyte recovery medium, Gibco™ CM 7000; Thermo Fisher Scientific), centrifuged (1000 g for 10 minutes) and resuspended in plating medium (Gibco™ CM3000—Williams Medium E supplemented with hepatocytes plating supplement pak-serum containing; Thermo Fisher Scientific). Cells were counted by trypan blue exclusion using a hemocytometer and adjusted to a cell density of […]. Thereafter, […] of cell suspension was aliquoted per well in a 96-well plate, resulting in 60,000 cells/well. Plates were shaken in the north-south and east-west direction during plating. Plated cells were incubated at 37° C./5% CO2 in a humidified cell culture incubator for 4-6 hours. During this time, incubation medium (Gibco™ CM4000, cell maintenance supplement pack; Thermo Fisher Scientific) was mixed with Gibco™ Geltrex™ (Thermo Fischer Scientific) at the appropriate Geltrex™ protein concentration. Following recovery, medium was removed from cells and replaced with freshly prepared incubation medium. Cells were incubated overnight in a cell culture incubator (37° C./5% CO2).
The next day the incubation medium was prepared by combining the hepatocyte maintenance supplement pack with Williams medium E. The medium was warmed to 37° C. 1000× dimethyl sulfoxide compound stocks were prepared to the desired concentrations. 10 mM compound stocks in dimethyl sulfoxide were diluted (1 μL to 1 mL CM4000; final concentration=10 μM). Overlay medium was aspirated and […] dose solution added to the desired labeled 96 well plate. Cells were returned to the humidified incubator overnight (37° C./5% CO2).
On day 3, incubation medium was warmed to 37° C., and the same process for compound preparation repeated as in day 2, i.e. 1000× dimethyl sulfoxide compound stocks were prepared to the desired concentration, diluted (1:1000) in warm incubation medium, and this freshly prepared medium was used to replace treatment medium. Cells were returned to the humidified incubator (37° C./5% CO2) overnight.
On day 4, RNA isolation was performed. Prior to RNA isolation, cell viability was assessed using presto blue reagent. 10× dilution of PrestoBlue™ reagent (Thermo Fisher Scientific) was prepared by mixing 1.4 mL PrestoBlue™ with 12.6 mL incubation medium. Medium was aspirated from cells, and 100 μL of cell viability medium (10× dilution of PrestoBlue™ reagent) added and incubated for 17 minutes. Cell viability was determined by measuring absorbance using a microplate reader (Spark® 10M Tecan Life Sciences). After this measurement, media was aspirated using a multichannel aspirator and a glass pipet to completely aspirate from each well. Plates were stored or immediately used for mRNA isolation. All surfaces were cleaned using RNase away. 2× Lysis buffer was well mixed after incubation at ambient temperature. Fresh lysis buffer was prepared by mixing 0.125 μL of 0.5 mM DTT with 4.875 μL 2× lysis buffer. 1× lysis buffer containing DTT was then prepared by adding 5 μL dilution buffer to the 2× lysis buffer and mixing thoroughly. Thereafter, cell lysates were prepared by adding 1× lysis buffer to each sample well (96-well plate). Samples were incubated for 3-6 minutes at ambient temperature while shaking (350-400 rpm) to lyse the cells. Cells were scrapped with tips, and cell lysate (80 μL) was transferred to each well of the mRNA Catcher PLUS™ plate (Thermo Fisher Scientific). mRNA Catcher PLUS™ plate containing samples was covered with adhesive plastic film plate cover and incubated at ambient temperature for 45-60 minutes for RNA hybridization.
After hybridization, lysate was aspirated from the cells. […]
(Quantitative PCR measures a nucleic acid by following its amplification.)

Regarding `C=CC(=O)N1CCC([C@@H]2CCNc3c(C(N)=O)c(-c4ccc(Oc5ccccc5)cc4)nn32)CC1` [Compound A, reference compound], the “CYP3A4 Ind. (%)” value stood at 125%.

As for `C=CC(=O)N1CCN([C@@H]2CCNc3c2nn(-c2ccc(Oc4ccccc4)cc2)c3C(N)=O)CC1` [Example 6, (7R)-2-(4-phenoxyphenyl)-7-[4-(prop-2-enoyl)piperazin-1-yl]-4,5,6,7-tetrahydro-2H-pyrazolo[4,3-b]pyridine-3-carboxamide], the “CYP3A4 Ind. (%)” value is listed as −1.3%. Further, for the setting “CYP3A4 mRNA fold change vs vehicle”, the “CYP3A4 Ind. fold” value is recorded as 0.9 fold.
